The supplement of paper PMC10307832

How the values were obtained:
Assay in all cases: relative viability (nuclei count vs DMSO), 5 days (fraction); higher = more cells survive
Idelalisib + Pemetrexed = compound: CC[C@H](Nc1ncnc2[nH]cnc12)c1nc2cccc(F)c2c(=O)n1-c1ccccc1 [Idelalisib] + Nc1nc2[nH]cc(CCc3ccc(C(=O)N[C@@H](CCC(=O)O)C(=O)O)cc3)c2c(=O)[nH]1 [Pemetrexed] (partner 0.2 µM)
Summary of the method: (§1)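 Relative viability was taken as the ratio of nuclei in treated wells to nuclei in vehicle wells. Lung cancer cell lines in 1536-well plates received compounds by pin tool one day after seeding, either one drug alone or a fixed anchor-drug dose plus five library-drug doses (not always all listed) in √10 steps. Nuclei were counted on 4× images after 5 days of treatment, and values are medians of duplicate plates.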

Idelalisib + Crizotinib = compound: CC[C@H](Nc1ncnc2[nH]cnc12)c1nc2cccc(F)c2c(=O)n1-c1ccccc1 [Idelalisib] + C[C@@H](Oc1cc(-c2cnn(C3CCNCC3)c2)cnc1N)c1c(Cl)ccc(F)c1Cl [Crizotinib] (partner 1 µM)
Summary of the method: as §1

Idelalisib + Luminespib = compound: CC[C@H](Nc1ncnc2[nH]cnc12)c1nc2cccc(F)c2c(=O)n1-c1ccccc1 [Idelalisib] + CCNC(=O)c1noc(-c2cc(C(C)C)c(O)cc2O)c1-c1ccc(CN2CCOCC2)cc1 [Luminespib] (partner 0.01 µM)
Summary of the method: as §1

Idelalisib + Pictilisib = compound: CC[C@H](Nc1ncnc2[nH]cnc12)c1nc2cccc(F)c2c(=O)n1-c1ccccc1 [Idelalisib] + CS(=O)(=O)N1CCN(Cc2cc3nc(-c4cccc5[nH]ncc45)nc(N4CCOCC4)c3s2)CC1 [Pictilisib] (partner 1 µM)
Summary of the method: as §1

Cell Line	relative viability (Idelalisib + Pemetrexed; first compound 0.04 µM)	relative viability (Idelalisib + Pemetrexed; first compound 0.1265 µM)	relative viability (Idelalisib + Pemetrexed; first compound 0.4 µM)	relative viability (Idelalisib + Pemetrexed; first compound 1.265 µM)	relative viability (Idelalisib + Pemetrexed; first compound 4 µM)	relative viability (Idelalisib + Crizotinib; first compound 0.04 µM)	relative viability (Idelalisib + Crizotinib; first compound 0.1265 µM)	relative viability (Idelalisib + Crizotinib; first compound 0.4 µM)	relative viability (Idelalisib + Crizotinib; first compound 1.265 µM)	relative viability (Idelalisib + Crizotinib; first compound 4 µM)	relative viability (Idelalisib + Luminespib; first compound 0.04 µM)	relative viability (Idelalisib + Luminespib; first compound 0.1265 µM)	relative viability (Idelalisib + Luminespib; first compound 0.4 µM)	relative viability (Idelalisib + Luminespib; first compound 1.265 µM)	relative viability (Idelalisib + Luminespib; first compound 4 µM)	relative viability (Idelalisib + Pictilisib; first compound 0.04 µM)	relative viability (Idelalisib + Pictilisib; first compound 0.1265 µM)	relative viability (Idelalisib + Pictilisib; first compound 0.4 µM)	relative viability (Idelalisib + Pictilisib; first compound 1.265 µM)	relative viability (Idelalisib + Pictilisib; first compound 4 µM)
NCI-H2023	0.244	0.239	0.212	0.169	0.256	0.63	0.662	0.487	0.579	0.54	0.644	0.784	0.79	0.87	0.67	0.221	0.279	0.153	0.241	0.266
Calu-6	–	–	–	–	–	0.866	0.822	0.759	0.832	0.774	–	–	–	–	–	1.05	0.947	0.934	0.902	0.865
SW 900	0.493	0.488	0.476	0.509	0.406	–	–	–	–	–	0.21	0.193	0.152	0.183	0.165	–	–	–	–	–
HOP-62	0.353	0.331	0.284	0.278	0.248	0.944	0.964	–	0.806	1.03	1.03	0.875	0.83	1.08	0.926	0.883	0.712	–	0.649	0.792
H3255	0.692	0.551	0.55	0.561	0.488	0.77	0.898	0.757	0.876	0.734	1.13	0.786	0.78	0.882	0.878	0.416	0.442	0.44	0.436	0.404
NCI-H1734	0.417	0.455	0.399	0.363	0.364	0.789	0.639	0.604	0.685	0.527	0.247	0.184	0.203	0.192	0.155	0.519	0.492	0.41	0.453	0.37
SK-MES-1	0.993	0.997	0.878	0.433	0.909	1.06	0.959	0.888	0.876	0.789	0.847	0.689	0.591	0.546	0.542	0.377	0.365	0.355	0.414	0.36
NCI-H1792	0.707	1.09	0.45	0.823	0.631	0.612	0.987	0.804	0.979	1.01	0.408	0.434	–	0.679	0.33	0.279	0.251	0.268	0.275	0.249
EKVX	0.407	0.387	0.377	0.386	0.395	0.83	0.897	0.633	0.753	0.752	0.703	0.916	0.723	0.804	0.814	0.498	0.456	0.384	0.356	0.447
EPLC-272H	0.303	0.386	0.317	0.23	0.347	0.891	0.853	0.753	0.739	0.748	0.521	0.291	0.309	0.265	0.325	0.299	0.313	0.236	0.402	0.316
LK-2	0.344	0.14	–	0.324	0.404	0.264	0.205	–	0.215	0.235	0.177	0.142	–	0.196	0.178	0.545	0.431	–	0.534	0.586
CAL-12T	1.34	0.925	1.22	1.21	1.23	0.769	0.636	0.562	0.635	0.518	0.302	0.635	0.362	0.564	0.264	0.382	0.47	0.257	0.43	0.417
NCI-H322M	0.648	0.634	0.639	0.628	0.623	1	0.842	0.792	0.687	0.809	0.955	0.919	0.719	0.847	0.683	0.546	0.584	0.444	0.508	0.549
NCI-H1650	0.276	0.43	0.373	0.382	0.319	0.87	0.892	0.975	0.985	0.952	0.18	0.191	0.198	0.219	0.185	0.668	0.608	0.553	0.645	0.593
NCI-H2342	0.853	0.74	0.717	0.706	0.765	–	–	–	–	–	0.764	0.757	0.629	0.72	0.496	–	–	–	–	–
SW 1573	0.825	0.848	0.802	0.702	0.739	0.794	0.682	0.836	0.832	0.833	0.275	0.171	0.219	0.17	0.365	0.547	0.523	0.513	0.668	0.393
NCI-H2405	1.13	1.06	0.986	0.974	1.09	0.846	0.814	0.708	0.76	0.692	0.777	0.621	0.473	0.52	0.442	0.492	0.471	0.387	0.401	0.447

Cell Line	relative viability (Idelalisib + Pemetrexed; first compound 0.04 µM)	relative viability (Idelalisib + Pemetrexed; first compound 0.1265 µM)	relative viability (Idelalisib + Pemetrexed; first compound 0.4 µM)	relative viability (Idelalisib + Pemetrexed; first compound 1.265 µM)	relative viability (Idelalisib + Pemetrexed; first compound 4 µM)	relative viability (Idelalisib + Crizotinib; first compound 0.04 µM)	relative viability (Idelalisib + Crizotinib; first compound 0.1265 µM)	relative viability (Idelalisib + Crizotinib; first compound 0.4 µM)	relative viability (Idelalisib + Crizotinib; first compound 1.265 µM)	relative viability (Idelalisib + Crizotinib; first compound 4 µM)	relative viability (Idelalisib + Luminespib; first compound 0.04 µM)	relative viability (Idelalisib + Luminespib; first compound 0.1265 µM)	relative viability (Idelalisib + Luminespib; first compound 0.4 µM)	relative viability (Idelalisib + Luminespib; first compound 1.265 µM)	relative viability (Idelalisib + Luminespib; first compound 4 µM)	relative viability (Idelalisib + Pictilisib; first compound 0.04 µM)	relative viability (Idelalisib + Pictilisib; first compound 0.1265 µM)	relative viability (Idelalisib + Pictilisib; first compound 0.4 µM)	relative viability (Idelalisib + Pictilisib; first compound 1.265 µM)	relative viability (Idelalisib + Pictilisib; first compound 4 µM)
LCLC-103H	0.508	0.456	0.471	0.505	0.477	1.03	0.986	0.957	1.09	0.839	0.998	0.731	0.757	0.933	0.794	0.756	0.63	0.517	0.586	0.574
HCC-44	0.684	0.664	0.652	0.586	0.687	0.822	0.857	0.819	0.948	0.85	1.25	1.06	0.852	1.18	1.05	0.679	0.646	0.526	0.59	0.591
RERF-LC-KJ	0.46	0.44	0.46	0.491	0.448	0.94	0.845	0.847	0.785	0.861	1.31	1.33	1.12	1.19	1.07	0.493	0.521	0.581	0.516	0.53
IA-LM	–	–	–	–	–	0.745	0.849	0.944	1.19	0.818	–	–	–	–	–	0.275	0.344	0.358	0.445	0.296
ABC-1	–	–	–	–	–	0.95	1.23	1.14	1.04	0.902	0.466	0.643	–	0.521	0.497	0.726	0.771	0.566	0.813	0.723
NCI-H1395	0.915	0.859	0.804	0.83	0.748	–	–	–	–	–	0.675	0.72	0.662	0.694	0.645	0.714	0.525	0.564	0.613	0.557
EBC-1	–	–	–	–	–	0.202	0.185	0.172	0.204	0.202	–	–	–	–	–	0.399	0.42	0.343	0.368	0.209
NCI-H727	–	–	–	–	–	0.81	0.798	0.76	1	0.797	0.327	0.345	–	0.333	0.451	0.385	0.66	0.312	0.773	0.476
A549	–	–	–	–	–	0.902	0.899	0.669	0.751	0.539	–	–	–	–	–	0.412	0.516	0.409	0.468	0.371
NCI-H1703	–	–	–	–	–	0.857	0.56	0.631	0.754	0.315	–	–	–	–	–	0.229	0.237	0.23	0.247	0.197
NCI-H1299	–	–	–	–	–	0.99	0.969	0.919	1.08	1.01	–	–	–	–	–	0.764	0.758	0.833	0.973	0.606
HCC-366	0.178	0.163	0.214	0.138	0.21	0.891	0.398	0.471	0.464	0.411	–	–	–	–	–	0.138	0.177	0.0975	0.165	0.146
NCI-H522	1.3	0.99	0.995	1.21	1.05	–	–	–	–	–	1.13	–	1.21	1.12	1.23	–	–	–	–	–
NCI-H1648	0.711	0.76	0.806	0.749	0.53	–	–	–	–	–	–	–	–	–	–	–	–	–	–	–
NCI-H1793	0.821	0.95	–	0.81	0.627	–	–	–	–	–	0.208	0.253	0.166	0.179	0.183	0.306	0.355	0.307	0.312	0.296
NCI-H1623	–	–	–	–	–	–	–	–	–	–	0.461	0.494	0.394	0.381	0.516	–	–	–	–	–
HCC-78	0.664	0.956	0.87	0.86	0.935	0.322	0.354	0.296	0.31	0.274	–	–	–	–	–	0.222	0.208	0.206	0.21	0.228
